Assay results published in patent publication US20040167164A1, “Compositions and methods for treating particular chemical addictions and mental illnesses” (priority 1998, published 2004).
Where “and” joins values, the source holds several entries; their conditions need not be identical. Equal values may be shown once. Entries after “also recorded” stand apart in the source; their conditions may differ.

What was measured:
[1] = assay type: in vivo; conditions: with Polycitra orally, urine pH about 7.8 to 8
Excerpt: Once known that AMPT produced crystalluria, which prevented its use in humans, the present inventor conducted research to find a solution to the crystalluria problem. Specifically, this research was directed to provide a composition containing AMPT that could be used in the treatment of patients suffering from different conditions and without the formation of AMPT crystalluria. This was accomplished with extensive research in animals, such as mice, rats, mongrel and beagle dogs, to which AMPT with a urine alkalinizer was administered. The alkalinization was obtained with Polycitra, administered orally, and in an amount to obtain a urine pH of about 7.8 to 8.

[2] = test system: patients with dual disorder; assay: Length of hospitalization of treated patients (Table I); conditions: human, in vivo
[3] = test system: morphine addicted monkeys; assay: Craving and abstinence syndrome in narcotic-addicted monkeys; assay type: in vivo; conditions: bar-presses; withdrawal symptoms, aggressive behavior
Excerpt: Equally the same, at present it is well known that all addictions have in common a biochemical factor—the alteration of the dopamine synthesis and its transporters.
Based on the above, we further hypothesized that the combination of both agents would render better results than any one of them alone.

[4] = test system: addiction to heroin
Method: (§1) Sixteen patients, randomly selected, addicted to heroin, cocaine, or cocaine and alcohol, were assigned to 3 different treatment groups, as follows:
(§2) a) A group of 6 patients, 3 of them addicted to heroin, and another 3 addicted to cocaine plus alcohol, were treated with AMPT alone.
(§3) b) Another group of 6 patients, 3 addicted to heroin and another 3 to cocaine plus alcohol, were treated with Haloperidol alone.
(§4) c) Another group of 4 patients, 2 addicted to heroin and another 2 addicted to cocaine and alcohol, were treated with placebo from the first day of admission.
(§5) The treatment protocol was as follows:
(§6) 2) All patients received the same proper amount of the alkalinizer Polycitra to produce a urinary pH around 7.8.
(§7) 4) All patients started treatment immediately after they arrived before they could develop any signs of withdrawal.
(§8) 5) Because of the difficulty to fulfill the above requirement of having consumed drugs on the same day of admission, all patients could not be treated simultaneously. This requirement was instated to maintain similarity with many other patients in our general program, where patients are started on treatment immediately after they arrive, even if they arrive immediately after consuming large amounts of the addicting drug(s).

[5] = test system: craving and abstinence symptoms; assay: Unintentional simple blind study with defective AMPT capsules; assay type: in vivo, human; conditions: capsules containing less than half the intended amount of AMPT
Excerpt: Moreover, it was confirmed that the effective agent in abolishing craving and abstinence symptoms in humans was the action of AMPT and none of the other agents given—Akineton or Polycitra—when in our first studies in humans, unknowingly we administered to patients capsules in which the amount of AMPT contained was less than half the amount of AMPT they should have had. The excessive amount of filler (calcium stearate) put in the capsulating machine in order to render the blended mixture more fluid and less compact, given the heavy consistency of the AMPT that was otherwise difficult for incorporation into capsules, was so excessive that it decreased the amount of AMPT in the capsules to less than half of what it should have been.
Once we knew the cause of the failure, we started to administer the proper dosage of AMPT. The patients then responded. […] The number of patients treated with different addictions, convinced us that the association of AMPT with Haloperidol produces very outstanding and beneficial results.

[6] = test system: rats exposed to cigarette extract and smoke; assay: Rats given cigarette extract water and cigarette smoke, choice test; assay type: in vivo; conditions: after 18 hours
Excerpt: A cigarette extract was obtained by burning cigarettes and collecting the tar, nicotine, and other products of cigarette combustion by a perforated plastic tube tied to the exhaust of a miniature vacuum cleaner. The air and smoke was passed through a container of water in which the cigarette extract was deposited. This drinking water was subsequently given to the animals. In addition to bottle feeding rats with the cigarette extract water (equivalent to 6 cigarettes per rat per day), the rats were also exposed to cigarette smoke. The rats were exposed for 2 hours at 8 hour intervals, for a total of 6 hours a day, to cigarette smoke in a sealed chamber. After a period of 4 months, 24 animals died of different causes, pneumonia among them, and 66 survived. The remaining 66 animals were divided in two groups: 35 were treated with AMPT orally, and 31 were kept as controls. The urine was alkalinized in both groups with Polycitra to a pH of about 7.8.
At the end of 4 months, all rats were given the choice to continue drinking the same cigarette extract contaminated water or drink pure drinking water in equal amounts. All animals were given the choice to be in the cigarette smoke filled chamber or to use clean air quarters. […]

[7] = test system: schizophrenia and mania
[8] = test system: addiction to cocaine plus alcohol; assay: 16 patient study, patients addicted to cocaine plus alcohol; assay type: in vivo, human; conditions: three patients
Method: as §1, §2, §3, §4, §5, §6, §7, §8

[9] = test system: tobacco addiction (nicotine); assay: Treatment of smokers (nicotine dependence); parameters: species or system human; conditions: in vivo
Method: Furthermore, the present inventor utilized the combination of Haloperidol and AMPT by administering small doses of Haloperidol, 2 mg, (6 mgs total per day) for a healthy human, weighing 70 kg, simultaneously with the initiation of treatment with AMPT.
Generally, the administration of Haloperidol was discontinued after 7-10 days, while AMPT was administered for a period of at least three months in doses of 250 mg b.i.d.

[10] = test system: heroin addiction; assay: Case reports, heroin addiction
[11] = test system: rats made dependent on alcohol; assay: Rats made dependent on alcohol (25% alcohol solution); assay type: in vivo; conditions: AMPT 300 mg per kg of body weight
Method: Subsequently, it was observed that rats made dependent on alcohol (25% alcohol solution) would prefer again to drink plain water, instead of the alcohol solution upon which they had been made dependent, when treated with AMPT (300 mg per kg of body weight), with their preference being manifested after 2-4 days of treatment.

[12] = test system: homovanilic acid (HVA), a dopamine metabolite; assay: Urinary dopamine metabolites during Haloperidol administration; assay type: in vivo, human; conditions: for dopamine metabolites (HVA) in urine: bipolar, manic and paranoid schizophrenic patients
Method: While studying human subjects, diagnosed with bipolar illness, the effects of administering Haloperidol on the metabolites of the neurotransmitter dopamine (DA) were analyzed.
The urinary studies were done for a period of 6 weeks in eight patients chosen for the study (three manic patients and five schizophrenics of the paranoid type).

[13] = test system: alcoholism; assay: Treatment of alcoholic patients; assay type: in vivo, human; conditions: follow-up 2 to 3 years

## CC(N)(Cc1ccc(O)cc1)C(=O)O (stereo not drawn) [AMPT, alpha-methyl-para-tyrosine]
[1]
  safety (autopsy, macroscopic, microscopic, electron-microscopy): safety being confirmed by autopsy
[2]
  Average Length of Hospitalization: 47 days
  Longest Hospitalization: 97 days
  Shortest Hospitalization: 26 days
[3]
  craving and manifestations of the abstinence syndrome: abolition of craving and withdrawal in all animals; also recorded: abolish the craving for morphine and the manifestations of the abstinence syndrome
[4]; three patients
  day when patients had no craving or abstinence symptoms: sixth day
[5]
  patient response: failed to respond
[6]
  choice of chamber: totally avoiding the smoke filled compartment
[6]; AMPT orally, discontinued two days in advance
  choice of drinking water: chose to continue drinking the pure water
[7]; Haloperidol 10-15 mg t.i.d. when added
  time to almost total cessation of the acute symptoms: 24 to 30 h
[7]; case reports 8, 10, 11, follow-up 1-2 years
  relapse of symptoms at follow-up on maintenance: did not have any more phases of mania or depression
[8]
  day when craving for cocaine started to remit: fifth day
  day when craving for cocaine was totally extinguished: seventh
[9]
  time until craving to smoke is lost: 2 to 4 days and 2 to 3 days
[10]; case reports 1, 2, 16, 17, 18
  time to discharge from hospital: 65 days and 78 days
[10]; case reports 1, 2, 17, 18
  craving and abstinence symptoms: no abstinence symptoms appearing
[10]; follow-up 14 months to 1½ years
  relapse to drugs at follow-up: had not taken any drugs
[11]
  time until preference for plain water instead of alcohol solution: 2 to 4 days

## OC(CCN1CCCCC1)(c1ccccc1)C1CC2C=CC1C2 (stereo not shown) [Akineton]
[12]
  dopamine metabolites (HVA) in urine: not related to the increase in dopamine metabolites

## O=C(CCCN1CCC(O)(c2ccc(Cl)cc2)CC1)c1ccc(F)cc1 [Haloperidol, 4-[4-(p-chlorophenyl)-4-hydroxy-piperidino]-4′-fluorobutyrophe]
[12]; Haloperidol exclusively, up to 60 mg a day, three paranoid and two manic patients
  clinical symptoms after a month of treatment: not totally controlled
[12]
  dopamine metabolites (HVA) in urine: increasing; also recorded: increased gradually and quantitatively in urine
[12]; continued Haloperidol administration
  time to maximum HVA concentration in urine: 3-4 weeks
[3]
  craving and manifestations of the abstinence syndrome: did not modify the craving
[4]; 16 patient study, heroin and cocaine plus alcohol
  overall conclusion on treatment of addiction: useless
[4]; human, in vivo
  severity of withdrawal symptoms compared with no treatment agent: more severe
[4]; three patients
  onset of severe manifestations of withdrawal: 26 to 30 h
[8]; up to sixth day
  craving for cocaine: did not subside

## O=C1CC[C@@]2(O)[C@H]3Cc4ccc(O)c5c4[C@@]2(CCN3CC2CC2)[C@H]1O5 [Naltrexone]
[13]
  relapse into alcohol at follow-up: none
